Measured values reported in PubChem BioAssay (NCI).
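Five compound concentrations were applied to cells in 96-well plates for 48 hours; endpoints were derived by simple linear interpolation of the resulting dose-response curve. The concentration for full growth arrest is given as TGI.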

Tests used:
Assay in all cases: NCI anticancer screen, dose series, 48 h
DU-145 prostate = test system: DU-145 prostate
KM12 colon = test system: KM12 colon
M14 melanoma = test system: M14 melanoma
NCI-H23 lung = test system: NCI-H23 lung
SNB-19 CNS = test system: SNB-19 CNS
U251 CNS = test system: U251 CNS
HCT-116 colon = test system: HCT-116 colon
NCI-H226 lung = test system: NCI-H226 lung
HT29 colon = test system: HT29 colon
NCI/ADR-RES ovarian = test system: NCI/ADR-RES ovarian
SF-268 CNS = test system: SF-268 CNS
HCC-2998 colon = test system: HCC-2998 colon
MDA-MB-435 = test system: MDA-MB-435
SF-295 CNS = test system: SF-295 CNS
SR leukemia = test system: SR leukemia
CCRF-CEM leukemia = test system: CCRF-CEM leukemia
SW-620 colon = test system: SW-620 colon
HOP-92 NSCLC = test system: HOP-92 NSCLC
HCT-15 colon = test system: HCT-15 colon
SF-539 CNS = test system: SF-539 CNS
NCI-H460 lung = test system: NCI-H460 lung
COLO 205 colon = test system: COLO 205 colon
MDA-MB-231 breast = test system: MDA-MB-231 breast
EKVX NSCLC = test system: EKVX NSCLC
CAKI-1 renal = test system: CAKI-1 renal
OVCAR-8 ovarian = test system: OVCAR-8 ovarian
HOP-62 NSCLC = test system: HOP-62 NSCLC
TK-10 renal = test system: TK-10 renal
UO-31 renal = test system: UO-31 renal
SN12C renal = test system: SN12C renal
SK-MEL-5 melanoma = test system: SK-MEL-5 melanoma
MOLT-4 leukemia = test system: MOLT-4 leukemia
786-0 renal = test system: 786-0 renal
OVCAR-4 ovarian = test system: OVCAR-4 ovarian
SK-OV-3 ovarian = test system: SK-OV-3 ovarian
SK-MEL-28 melanoma = test system: SK-MEL-28 melanoma
HL-60(TB) leukemia = test system: HL-60(TB) leukemia
LOX IMVI melanoma = test system: LOX IMVI melanoma
MCF7 breast = test system: MCF7 breast
SK-MEL-2 melanoma = test system: SK-MEL-2 melanoma
MALME-3M melanoma = test system: MALME-3M melanoma
PC-3 prostate = test system: PC-3 prostate
T-47D breast = test system: T-47D breast
BT-549 breast = test system: BT-549 breast
OVCAR-3 ovarian = test system: OVCAR-3 ovarian
RXF 393 renal = test system: RXF 393 renal
HS 578T breast = test system: HS 578T breast
K-562 leukemia = test system: K-562 leukemia
MDA-N = test system: MDA-N
NCI-H522 lung = test system: NCI-H522 lung
A498 renal = test system: A498 renal
IGROV1 ovarian = test system: IGROV1 ovarian
UACC-257 melanoma = test system: UACC-257 melanoma
RPMI-8226 leukemia = test system: RPMI-8226 leukemia
UACC-62 melanoma = test system: UACC-62 melanoma
SNB-75 CNS = test system: SNB-75 CNS
OVCAR-5 ovarian = test system: OVCAR-5 ovarian
A549 NSCLC = test system: A549 NSCLC
ACHN renal = test system: ACHN renal

For `CN(C)c1ccc(C2SCC(=O)N2c2nc3cc4sc(N5C(=O)CSC5c5ccc(N(C)C)cc5)nc4cc3s2)cc1` (configuration not stated), the TGI (DU-145 prostate) was over 87.2 µM, the TGI (KM12 colon) was over 100 µM and the TGI (M14 melanoma) was over 100 µM. The TGI (NCI-H23 lung) was over 100 µM, the TGI (SNB-19 CNS) was over 100 µM and the TGI (U251 CNS) was over 100 µM. For the same molecule, the TGI (HCT-116 colon) was over 100 µM, the TGI (NCI-H226 lung) was 73.1 µM and the TGI (HT29 colon) was over 100 µM. For the same molecule, the TGI (NCI/ADR-RES ovarian) was over 76.3 µM, the TGI (SF-268 CNS) was over 100 µM and the TGI (HCC-2998 colon) was over 100 µM. For the same molecule, the TGI (MDA-MB-435) was over 100 µM, the TGI (SF-295 CNS) was over 100 µM and the TGI (SR leukemia) was over 100 µM. For the same molecule, the TGI (CCRF-CEM leukemia) was over 100 µM, the TGI (SW-620 colon) was over 100 µM and the TGI (HOP-92 NSCLC) was over 100 µM. For the same molecule, the TGI (HCT-15 colon) was over 100 µM, the TGI (SF-539 CNS) was over 100 µM and the TGI (NCI-H460 lung) was over 28.3 µM. The TGI (COLO 205 colon) was over 100 µM, the TGI (MDA-MB-231 breast) was over 100 µM and the TGI (EKVX NSCLC) was over 100 µM. It also gave a TGI (CAKI-1 renal) of over 100 µM, a TGI (OVCAR-8 ovarian) of over 100 µM and a TGI (HOP-62 NSCLC) of over 100 µM. It also gave a TGI (TK-10 renal) of over 100 µM, a TGI (UO-31 renal) of over 100 µM and a TGI (SN12C renal) of over 100 µM. The TGI (SK-MEL-5 melanoma) was over 100 µM, the TGI (MOLT-4 leukemia) was over 100 µM and the TGI (786-0 renal) was over 100 µM. It also gave a TGI (OVCAR-4 ovarian) of over 100 µM, a TGI (SK-OV-3 ovarian) of over 100 µM and a TGI (SK-MEL-28 melanoma) of over 100 µM. The TGI (HL-60(TB) leukemia) was over 100 µM, the TGI (LOX IMVI melanoma) was over 100 µM and the TGI (MCF7 breast) was over 100 µM. For the same molecule, the TGI (SK-MEL-2 melanoma) was over 100 µM, the TGI (MALME-3M melanoma) was over 100 µM and the TGI (PC-3 prostate) was over 100 µM. For the same molecule, the TGI (T-47D breast) was over 100 µM, the TGI (BT-549 breast) was over 100 µM and the TGI (OVCAR-3 ovarian) was over 100 µM. For the same molecule, the TGI (RXF 393 renal) was over 100 µM, the TGI (HS 578T breast) was over 100 µM and the TGI (K-562 leukemia) was over 100 µM. It also gave a TGI (MDA-N) of over 100 µM, a TGI (NCI-H522 lung) of over 100 µM and a TGI (A498 renal) of over 100 µM. It also gave a TGI (IGROV1 ovarian) of over 100 µM, a TGI (UACC-257 melanoma) of over 70 µM and a TGI (RPMI-8226 leukemia) of over 100 µM. It also gave a TGI (UACC-62 melanoma) of over 100 µM, a TGI (SNB-75 CNS) of over 100 µM and a TGI (OVCAR-5 ovarian) of over 100 µM. For the same molecule, the TGI (A549 NSCLC) was over 100 µM and the TGI (ACHN renal) was over 100 µM.
`O=C(Nn1cc(F)c(=O)[nH]c1=O)C12CC3CC(CC(C3)C1)C2` gave a TGI (DU-145 prostate) of over 100 µM, a TGI (KM12 colon) of 49.1 µM and a TGI (M14 melanoma) of over 72.6 µM. It also gave a TGI (NCI-H23 lung) of 53 µM, a TGI (SNB-19 CNS) of over 100 µM and a TGI (U251 CNS) of over 72 µM. It also gave a TGI (HCT-116 colon) of 24.9 µM, a TGI (NCI-H226 lung) of over 100 µM and a TGI (HT29 colon) of 37.1 µM. The TGI (NCI/ADR-RES ovarian) was over 100 µM, the TGI (SF-268 CNS) was 98.2 µM and the TGI (HCC-2998 colon) was 18.4 µM. It also gave a TGI (MDA-MB-435) of over 56 µM, a TGI (SF-295 CNS) of over 100 µM and a TGI (SR leukemia) of 26.8 µM. For the same molecule, the TGI (CCRF-CEM leukemia) was 45 µM, the TGI (SW-620 colon) was over 96.4 µM and the TGI (HOP-92 NSCLC) was 42.6 µM. The TGI (HCT-15 colon) was 25.6 µM, the TGI (SF-539 CNS) was 16.3 µM and the TGI (NCI-H460 lung) was 19.7 µM. For the same molecule, the TGI (COLO 205 colon) was 23.5 µM, the TGI (MDA-MB-231 breast) was 37 µM and the TGI (EKVX NSCLC) was over 89.1 µM. For the same molecule, the TGI (CAKI-1 renal) was 32.7 µM, the TGI (OVCAR-8 ovarian) was over 100 µM and the TGI (HOP-62 NSCLC) was 51.8 µM. For the same molecule, the TGI (TK-10 renal) was over 86.8 µM, the TGI (UO-31 renal) was 54.4 µM and the TGI (SN12C renal) was over 100 µM. It also gave a TGI (SK-MEL-5 melanoma) of 12.2 µM, a TGI (MOLT-4 leukemia) of 47.9 µM and a TGI (786-0 renal) of over 100 µM. The TGI (OVCAR-4 ovarian) was over 66.2 µM, the TGI (SK-OV-3 ovarian) was 77.5 µM and the TGI (SK-MEL-28 melanoma) was over 86.6 µM. It also gave a TGI (HL-60(TB) leukemia) of 54.3 µM, a TGI (LOX IMVI melanoma) of 27.8 µM and a TGI (MCF7 breast) of over 100 µM. It also gave a TGI (SK-MEL-2 melanoma) of 63.3 µM, a TGI (MALME-3M melanoma) of 32.2 µM and a TGI (PC-3 prostate) of 45.5 µM. It also gave a TGI (T-47D breast) of over 80.2 µM, a TGI (BT-549 breast) of 79.3 µM and a TGI (OVCAR-3 ovarian) of 35.1 µM. It also gave a TGI (RXF 393 renal) of 57.8 µM, a TGI (HS 578T breast) of over 81.2 µM and a TGI (K-562 leukemia) of over 75.9 µM. For the same molecule, the TGI (MDA-N) was over 57 µM, the TGI (NCI-H522 lung) was 44.5 µM and the TGI (A498 renal) was over 81.2 µM. For the same molecule, the TGI (IGROV1 ovarian) was 27.5 µM, the TGI (UACC-257 melanoma) was over 100 µM and the TGI (RPMI-8226 leukemia) was 42.5 µM. It also gave a TGI (UACC-62 melanoma) of 24.4 µM, a TGI (SNB-75 CNS) of 80.1 µM and a TGI (OVCAR-5 ovarian) of over 95.1 µM. It also gave a TGI (A549 NSCLC) of over 100 µM and a TGI (ACHN renal) of 63.8 µM.
Work on `CC(C)Oc1c(N(Cc2ccccc2)c2ccccc2C2SCCCS2)c(=O)c1=O` yielded a TGI (DU-145 prostate) of over 100 µM, a TGI (KM12 colon) of 35.9 µM and a TGI (M14 melanoma) of 19.3 µM. The TGI (NCI-H23 lung) was over 47.5 µM, the TGI (SNB-19 CNS) was over 100 µM and the TGI (U251 CNS) was over 100 µM. For the same molecule, the TGI (HCT-116 colon) was 59.3 µM, the TGI (NCI-H226 lung) was over 28.2 µM and the TGI (HT29 colon) was 6.78 µM. It also gave a TGI (NCI/ADR-RES ovarian) of 4.7 µM, a TGI (SF-268 CNS) of over 100 µM and a TGI (HCC-2998 colon) of 18.5 µM. It also gave a TGI (MDA-MB-435) of 10.3 µM, a TGI (SF-295 CNS) of 5.67 µM and a TGI (SR leukemia) of over 100 µM. For the same molecule, the TGI (CCRF-CEM leukemia) was over 100 µM, the TGI (SW-620 colon) was 8.2 µM and the TGI (HOP-92 NSCLC) was over 83.3 µM. The TGI (HCT-15 colon) was over 56.5 µM, the TGI (SF-539 CNS) was 8 µM and the TGI (NCI-H460 lung) was over 60.8 µM. The TGI (COLO 205 colon) was 21.5 µM, the TGI (MDA-MB-231 breast) was over 56 µM and the TGI (EKVX NSCLC) was over 100 µM. It also gave a TGI (CAKI-1 renal) of over 100 µM, a TGI (OVCAR-8 ovarian) of over 60.7 µM and a TGI (HOP-62 NSCLC) of over 100 µM. The TGI (TK-10 renal) was over 100 µM, the TGI (UO-31 renal) was over 100 µM and the TGI (SN12C renal) was over 100 µM. It also gave a TGI (SK-MEL-5 melanoma) of over 100 µM, a TGI (MOLT-4 leukemia) of over 100 µM and a TGI (786-0 renal) of over 100 µM. It also gave a TGI (OVCAR-4 ovarian) of over 100 µM, a TGI (SK-OV-3 ovarian) of over 73.4 µM and a TGI (SK-MEL-28 melanoma) of over 100 µM. For the same molecule, the TGI (HL-60(TB) leukemia) was over 100 µM, the TGI (LOX IMVI melanoma) was over 100 µM and the TGI (MCF7 breast) was over 100 µM. The TGI (SK-MEL-2 melanoma) was 20.1 µM, the TGI (MALME-3M melanoma) was over 100 µM and the TGI (PC-3 prostate) was 35.7 µM. It also gave a TGI (T-47D breast) of over 100 µM, a TGI (BT-549 breast) of over 100 µM and a TGI (OVCAR-3 ovarian) of 7.07 µM. For the same molecule, the TGI (RXF 393 renal) was over 100 µM, the TGI (HS 578T breast) was 32.6 µM and the TGI (K-562 leukemia) was over 100 µM. The TGI (MDA-N) was over 30.7 µM, the TGI (NCI-H522 lung) was 4.87 µM and the TGI (A498 renal) was over 85.1 µM. It also gave a TGI (IGROV1 ovarian) of over 32.8 µM, a TGI (UACC-257 melanoma) of over 100 µM and a TGI (RPMI-8226 leukemia) of over 100 µM. The TGI (UACC-62 melanoma) was over 100 µM, the TGI (SNB-75 CNS) was 7.22 µM and the TGI (OVCAR-5 ovarian) was over 100 µM. It also gave a TGI (A549 NSCLC) of over 100 µM and a TGI (ACHN renal) of over 100 µM.
